Experimental data from the RepoRT retention time repository.

Experiment: A: acetonitrile + 0.1% formic acid + 10 mM ammonium formate; B: 5% water + 95% acetonitrile + 0.1% formic acid + 10 mM ammonium formate; gradient (min/%B) 0/10 2/10 22/100 27/100 27.1/10
Conditions: stereoisomer not certain

Row | LC retention time [min] | Compound
1 | 5.85 | CC(=O)NC(CCC(=O)O)C(=O)O (stereo unspecified) [N-Acetylglutamic acid]
2 | 5.64 | CC(=O)NCC(=O)O [N-Acetylglycine]
3 | 6.84 | CC(=O)NC1C(O)CC(O)(C(=O)O)OC1C(O)C(O)CO (stereo unspecified) [N-Acetylneuraminic acid]
4 | 2.34 | CSCC[C@H](NC=O)C(=O)O [N-Formyl-L-methionine]
5 | 1.63 | CC(C)CC(=O)NCC(=O)O [N-Iso valerylglycine]
6 | 7.02 | CN[C@H](CC(=O)O)C(=O)O [N-Methyl-D-aspartic acid]
7 | 6.54 | CN[C@@H](CCC(=O)O)C(=O)O [N-Methyl-L-glutamic acid]
8 | 1.97 | CC=C(C)C(=O)NCC(=O)O [N-Tiglylglycine]
9 | 5.85 | CC(=O)NC(CCC(N)=O)C(=O)O [N-alpha-Acetyl-L-glutamine]
10 | 6.17 | CC(=O)NC(CCCCN)C(=O)O [N-alpha-Acetyl-L-lysine]
11 | 7.5 | NC(=O)C1=CN(C2OC(COP(=O)(O)OP(=O)(O)OCC3OC(n4cnc5c(N)ncnc54)C(O)C3O)C(O)C2O)C=CC1 (stereo unspecified) [NADH]
12 | 8.7 | NC(=O)c1ccc[n+](C2OC(COP(=O)(O)OP(=O)([O-])OCC3OC(n4cnc5c(N)ncnc54)C(OP(=O)(O)O)C3O)C(O)C2O)c1 (stereo unspecified) [NADP]
13 | 7.82 | NC(=O)c1ccc[n+](C2OC(COP(=O)(O)OP(=O)([O-])OCC3OC(n4cnc5c(N)ncnc54)C(O)C3O)C(O)C2O)c1 (stereo unspecified) [NAD]
14 | 3.67 | CC1OC(OC2C(Oc3cc(O)c4c(c3)OC(c3ccc(O)cc3)CC4=O)OC(CO)C(O)C2O)C(O)C(O)C1O (stereo unspecified) [Naringin]
15 | 0.596 | Cc1ccnc2c1NC(=O)c1cccnc1N2C1CC1 [Nevirapine]
16 | 0.678 | NC(=O)c1cccnc1 [Niacinamide]
17 | 0.714 | COC(=O)C1=C(C)NC(C)=C(C(=O)OCCN(C)Cc2ccccc2)C1c1cccc([N+](=O)[O-])c1 (stereo unspecified) [Nicardipine]

Row | LC retention time [min] | Compound
18 | 2.44 | O=C(O)c1cccnc1 [Nicotinic acid]
19 | 0.418 | COC(=O)C1=C(C)NC(C)=C(C(=O)OC)C1c1ccccc1[N+](=O)[O-] [Nifedipine]
20 | 3.03 | CNC(=C[N+](=O)[O-])NCCSCc1csc(CN(C)C)n1 [Nizatidine]
21 | 5.88 | CC(=O)O[C@H](CC(=O)[O-])C[N+](C)(C)C [O-Acetyl-L-carnitine]
22 | 7.28 | NCCOP(=O)(O)O [O-Phosphorylethanolamine]
23 | 0.484 | COc1ccc2nc(S(=O)Cc3ncc(C)c(OC)c3C)[nH]c2c1 (stereo unspecified) [Omeprazole]
24 | 7.71 | NCCCC(N)C(=O)O (stereo unspecified) [Ornithine]
25 | 2.47 | CCOC(=O)C1=CC(OC(CC)CC)C(NC(C)=O)C(N)C1 (stereo unspecified) [Oseltamivir]
26 | 1.88 | O=c1[nH]c(=O)c2cn[nH]c2[nH]1 [Oxipurinol]
27 | 0.847 | CCN(CC)CC#CCOC(=O)C(O)(c1ccccc1)C1CCCCC1 (stereo unspecified) [Oxybutynin]
28 | 1.19 | Fc1ccc(C2CCNCC2COc2ccc3c(c2)OCO3)cc1 (stereo unspecified) [Paroxetine]
29 | 4.51 | Nc1nc2c(ncn2CCC(CO)CO)c(=O)[nH]1 [Penciclovir]
30 | 0.553 | CCCC(NC(C)C(=O)N1C(C(=O)O)CC2CCCCC21)C(=O)OCC (stereo unspecified) [Perindopril erbumine]
31 | 1.55 | OCCN1CCN(CCCN2c3ccccc3Sc3ccc(Cl)cc32)CC1 [Perphenazine]
32 | 3.83 | NC(=O)CCC(NC(=O)Cc1ccccc1)C(=O)O (stereo unspecified) [Phenyl-Ac-Gln-OH]
33 | 1.25 | O=C(CCc1ccc(O)cc1)c1c(O)cc(O)cc1OC1OC(CO)C(O)C(O)C1O (stereo unspecified) [Phloridzin]

Row | Compound | LC retention time [min]
34 | CNCCc1ccc(O)cc1 [N-Methyltyramine] | 2.53
35 | O=C(O)CNC(=O)c1cccnc1 [Nicotinuric acid] | 5.19
36 | NCC(O)c1ccc(O)cc1 (stereo unspecified) [Octopamine] | 3.85
